Laboratory results published in PubChem BioAssay (NCI).
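Dose response: 5 concentrations. Exposure: 48 h. Format: 96-well plates. Endpoint: linear interpolation; highest concentration if not reached. Definition used: TGI = concentration required for complete inhibition of growth.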

Assays:
Test in all cases: NCI anticancer screen, dose series, 48 h
786-0 renal = tested on: 786-0 renal
A498 renal = tested on: A498 renal
A549 NSCLC = tested on: A549 NSCLC
ACHN renal = tested on: ACHN renal
BT-549 breast = tested on: BT-549 breast
CAKI-1 renal = tested on: CAKI-1 renal
CCRF-CEM leukemia = tested on: CCRF-CEM leukemia
COLO 205 colon = tested on: COLO 205 colon
DU-145 prostate = tested on: DU-145 prostate
EKVX NSCLC = tested on: EKVX NSCLC
HCC-2998 colon = tested on: HCC-2998 colon
HCT-116 colon = tested on: HCT-116 colon
HCT-15 colon = tested on: HCT-15 colon
HOP-62 NSCLC = tested on: HOP-62 NSCLC
HOP-92 NSCLC = tested on: HOP-92 NSCLC
HS 578T breast = tested on: HS 578T breast
HT29 colon = tested on: HT29 colon
IGROV1 ovarian = tested on: IGROV1 ovarian
K-562 leukemia = tested on: K-562 leukemia
KM12 colon = tested on: KM12 colon
M14 melanoma = tested on: M14 melanoma
MALME-3M melanoma = tested on: MALME-3M melanoma
MCF7 breast = tested on: MCF7 breast
MDA-MB-231 breast = tested on: MDA-MB-231 breast
MDA-MB-435 = tested on: MDA-MB-435
MDA-N = tested on: MDA-N
MOLT-4 leukemia = tested on: MOLT-4 leukemia
NCI-H226 lung = tested on: NCI-H226 lung
NCI-H23 lung = tested on: NCI-H23 lung
NCI-H460 lung = tested on: NCI-H460 lung
NCI-H522 lung = tested on: NCI-H522 lung
NCI/ADR-RES ovarian = tested on: NCI/ADR-RES ovarian
OVCAR-3 ovarian = tested on: OVCAR-3 ovarian
OVCAR-4 ovarian = tested on: OVCAR-4 ovarian
OVCAR-5 ovarian = tested on: OVCAR-5 ovarian
OVCAR-8 ovarian = tested on: OVCAR-8 ovarian
PC-3 prostate = tested on: PC-3 prostate
RPMI-8226 leukemia = tested on: RPMI-8226 leukemia
RXF 393 renal = tested on: RXF 393 renal
SF-268 CNS = tested on: SF-268 CNS
SF-295 CNS = tested on: SF-295 CNS
SF-539 CNS = tested on: SF-539 CNS
SK-MEL-2 melanoma = tested on: SK-MEL-2 melanoma
SK-MEL-28 melanoma = tested on: SK-MEL-28 melanoma
SK-MEL-5 melanoma = tested on: SK-MEL-5 melanoma
SK-OV-3 ovarian = tested on: SK-OV-3 ovarian
SN12C renal = tested on: SN12C renal
SNB-19 CNS = tested on: SNB-19 CNS
SNB-75 CNS = tested on: SNB-75 CNS
SW-620 colon = tested on: SW-620 colon
T-47D breast = tested on: T-47D breast
TK-10 renal = tested on: TK-10 renal
U251 CNS = tested on: U251 CNS
UACC-257 melanoma = tested on: UACC-257 melanoma
UO-31 renal = tested on: UO-31 renal
LOX IMVI melanoma = tested on: LOX IMVI melanoma
SR leukemia = tested on: SR leukemia
UACC-62 melanoma = tested on: UACC-62 melanoma

C=CC(CBr)CCC(Br)C(C)(C)Br (stereo not drawn)
TGI (786-0 renal): > 10 µM | TGI (A498 renal): > 10 µM | TGI (A549 NSCLC): > 10 µM | TGI (ACHN renal): > 10 µM | TGI (BT-549 breast): > 10 µM | TGI (CAKI-1 renal): > 10 µM | TGI (CCRF-CEM leukemia): > 10 µM | TGI (COLO 205 colon): > 10 µM | TGI (DU-145 prostate): > 10 µM | TGI (EKVX NSCLC): > 10 µM | TGI (HCC-2998 colon): > 10 µM | TGI (HCT-116 colon): > 10 µM | TGI (HCT-15 colon): > 10 µM | TGI (HOP-62 NSCLC): > 10 µM | TGI (HOP-92 NSCLC): > 10 µM | TGI (HS 578T breast): > 10 µM | TGI (HT29 colon): > 10 µM | TGI (IGROV1 ovarian): > 10 µM | TGI (K-562 leukemia): > 10 µM | TGI (KM12 colon): > 10 µM | TGI (M14 melanoma): > 10 µM | TGI (MALME-3M melanoma): > 10 µM | TGI (MCF7 breast): > 10 µM | TGI (MDA-MB-231 breast): > 10 µM | TGI (MDA-MB-435): > 10 µM | TGI (MDA-N): > 10 µM | TGI (MOLT-4 leukemia): > 10 µM | TGI (NCI-H226 lung): > 10 µM | TGI (NCI-H23 lung): > 10 µM | TGI (NCI-H460 lung): > 10 µM | TGI (NCI-H522 lung): > 10 µM | TGI (NCI/ADR-RES ovarian): > 10 µM | TGI (OVCAR-3 ovarian): > 10 µM | TGI (OVCAR-4 ovarian): > 10 µM | TGI (OVCAR-5 ovarian): > 10 µM | TGI (OVCAR-8 ovarian): > 10 µM | TGI (PC-3 prostate): > 10 µM | TGI (RPMI-8226 leukemia): > 10 µM | TGI (RXF 393 renal): > 10 µM | TGI (SF-268 CNS): > 10 µM | TGI (SF-295 CNS): > 10 µM | TGI (SF-539 CNS): > 10 µM | TGI (SK-MEL-2 melanoma): > 10 µM | TGI (SK-MEL-28 melanoma): > 10 µM | TGI (SK-MEL-5 melanoma): > 10 µM | TGI (SK-OV-3 ovarian): > 10 µM | TGI (SN12C renal): > 10 µM | TGI (SNB-19 CNS): > 10 µM | TGI (SNB-75 CNS): > 10 µM | TGI (SW-620 colon): > 10 µM | TGI (T-47D breast): > 10 µM | TGI (TK-10 renal): > 10 µM | TGI (U251 CNS): > 10 µM | TGI (UACC-257 melanoma): > 10 µM | TGI (UO-31 renal): > 10 µM

c1ccc(N=C(N2CCOCC2)N(CCN2CCOCC2)c2ccccc2)cc1
TGI (786-0 renal): > 100 µM | TGI (A549 NSCLC): > 100 µM | TGI (BT-549 breast): > 100 µM | TGI (CAKI-1 renal): > 100 µM | TGI (CCRF-CEM leukemia): > 100 µM | TGI (COLO 205 colon): > 100 µM | TGI (DU-145 prostate): > 100 µM | TGI (EKVX NSCLC): > 100 µM | TGI (HCC-2998 colon): > 100 µM | TGI (HCT-116 colon): > 100 µM | TGI (HCT-15 colon): > 100 µM | TGI (HOP-62 NSCLC): > 100 µM | TGI (HS 578T breast): > 100 µM | TGI (HT29 colon): > 100 µM | TGI (IGROV1 ovarian): > 100 µM | TGI (K-562 leukemia): > 100 µM | TGI (KM12 colon): > 100 µM | TGI (LOX IMVI melanoma): > 100 µM | TGI (M14 melanoma): > 100 µM | TGI (MALME-3M melanoma): > 100 µM | TGI (MCF7 breast): > 100 µM | TGI (MDA-MB-231 breast): > 100 µM | TGI (MDA-MB-435): > 100 µM | TGI (MDA-N): > 100 µM | TGI (MOLT-4 leukemia): > 100 µM | TGI (NCI-H226 lung): > 100 µM | TGI (NCI-H23 lung): > 100 µM | TGI (NCI-H460 lung): > 100 µM | TGI (NCI-H522 lung): > 100 µM | TGI (OVCAR-3 ovarian): > 100 µM | TGI (OVCAR-4 ovarian): > 100 µM | TGI (OVCAR-8 ovarian): > 100 µM | TGI (PC-3 prostate): > 100 µM | TGI (RPMI-8226 leukemia): > 100 µM | TGI (RXF 393 renal): > 100 µM | TGI (SF-268 CNS): > 100 µM | TGI (SF-295 CNS): > 100 µM | TGI (SF-539 CNS): > 100 µM | TGI (SK-MEL-2 melanoma): > 100 µM | TGI (SK-MEL-28 melanoma): > 100 µM | TGI (SK-MEL-5 melanoma): > 100 µM | TGI (SK-OV-3 ovarian): > 100 µM | TGI (SN12C renal): > 100 µM | TGI (SNB-19 CNS): > 100 µM | TGI (SNB-75 CNS): > 100 µM | TGI (SR leukemia): > 100 µM | TGI (SW-620 colon): > 100 µM | TGI (T-47D breast): > 100 µM | TGI (TK-10 renal): > 100 µM | TGI (U251 CNS): > 100 µM | TGI (UACC-257 melanoma): > 100 µM | TGI (UACC-62 melanoma): > 100 µM | TGI (UO-31 renal): > 100 µM
